Experimental data as given in ChEMBL document CHEMBL2177002, “Antifungal spectrum, in vivo efficacy, and structure-activity relationship of ilicicolin h” (ACS Med Chem Lett, 2012).
Values after ≈ are worked out from the molar mass of the structure shown. Active and inactive are the calls of the source. The calls are words filed in the database; no cut-off is given here.

Experiments:
[1] = test system: Candida albicans; assay: Antifungal activity against Candida albicans MY 1055 after 24 hrs by NCCLS broth microdilution method; type: functional; conditions: for MIC: MY 1055, 24 h
[2] = test system: Candida albicans; assay: Antifungal activity against Candida albicans SC 53124 after 24 hrs by NCCLS broth microdilution method; type: functional
[3] = test system: Meyerozyma guilliermondii; assay: Antifungal activity against Candida guilliermondii CLY 308 after 24 hrs by NCCLS broth microdilution method; type: functional
[4] = test system: Cryptococcus neoformans; assay: Antifungal activity against Cryptococcus neoformans H 99 after 40 hrs by NCCLS broth microdilution method; type: functional
[5] = test system: Nakaseomyces glabratus; assay: Antifungal activity against Candida glabrata MY 1381 after 24 hrs by NCCLS broth microdilution method; type: functional
[6] = test system: Nakaseomyces glabratus; assay: Antifungal activity against Candida glabrata CLY 574 after 24 hrs by NCCLS broth microdilution method; type: functional
[7] = test system: Candida parapsilosis; assay: Antifungal activity against Candida parapsilosis ATCC 22019 after 24 hrs by NCCLS broth microdilution method; type: functional
[8] = test system: Clavispora lusitaniae; assay: Antifungal activity against Candida lusitaniae MY 1396 after 24 hrs by NCCLS broth microdilution method; type: functional
[9] = test system: Candida albicans; assay: Antifungal activity against fluconazole-resistant Candida albicans MY 2301 after 24 hrs by NCCLS broth microdilution method; type: functional
[10] = test system: Meyerozyma guilliermondii; assay: Antifungal activity against Candida guilliermondii CLY 346 after 24 hrs by NCCLS broth microdilution method; type: functional
[11] = test system: Cryptococcus neoformans; assay: Antifungal activity against Cryptococcus neoformans MY 2061 after 40 hrs by NCCLS broth microdilution method; type: functional
[12] = test system: Candida tropicalis; assay: Antifungal activity against Candida tropicalis MY 1012 after 40 hrs by NCCLS broth microdilution method; type: functional
[13] = test system: Pichia kudriavzevii; assay: Antifungal activity against Candida krusei CLY 549 after 24 hrs by NCCLS broth microdilution method; type: functional
[14] = test system: Cytochrome b (Saccharomyces cerevisiae (strain ATCC 204508 / S288c) (Baker's yeast)), P00163 [S20L]; assay: Inhibition of Saccharomyces cerevisiae isolate 1 cytochrome bc1 harboring cytochrome b S20L mutant
[15] = test system: Cytochrome b (Saccharomyces cerevisiae (strain ATCC 204508 / S288c) (Baker's yeast)), P00163 [Q22T]; assay: Inhibition of Saccharomyces cerevisiae isolate 2 cytochrome bc1 complex harboring cytochrome b Q22T mutant
[16] = test system: Cytochrome b (Candida albicans (strain SC5314 / ATCC MYA-2876) (Yeast)), P0C8L0 [G37D]; assay: Inhibition of Candida albicans isolate 4 cytochrome bc1 complex harboring cytochrome b G37D mutant
[17] = test system: Cytochrome b (Candida albicans (strain SC5314 / ATCC MYA-2876) (Yeast)), P0C8L0 [Q22E]; assay: Inhibition of Candida albicans isolate 2 cytochrome bc1 complex harboring cytochrome b Q22E mutant
[18] = test system: Cytochrome b (Saccharomyces cerevisiae (strain ATCC 204508 / S288c) (Baker's yeast)), P00163 [G37D]; assay: Inhibition of Saccharomyces cerevisiae isolate 2 cytochrome bc1 complex harboring cytochrome b G37D mutant
[19] = test system: Cytochrome b (Saccharomyces cerevisiae (strain ATCC 204508 / S288c) (Baker's yeast)), P00163 [G37S]; assay: Inhibition of Saccharomyces cerevisiae isolate 2 cytochrome bc1 complex harboring cytochrome b G37S mutant
[20] = test system: Cytochrome b (Saccharomyces cerevisiae (strain ATCC 204508 / S288c) (Baker's yeast)), P00163 [S20T]; assay: Inhibition of Saccharomyces cerevisiae isolate 1 cytochrome bc1 harboring cytochrome b S20T mutant
[21] = test system: Cytochrome b (Candida albicans (strain SC5314 / ATCC MYA-2876) (Yeast)), P0C8L0 [G37C]; assay: Inhibition of Candida albicans isolate 3 cytochrome bc1 complex harboring cytochrome b G37C mutant
[22] = test system: Cytochrome b (Candida albicans (strain SC5314 / ATCC MYA-2876) (Yeast)), P0C8L0 [G37S]; assay: Inhibition of Candida albicans isolate 6 cytochrome bc1 complex harboring cytochrome b G37S mutant
[23] = test system: Cytochrome b (Saccharomyces cerevisiae (strain ATCC 204508 / S288c) (Baker's yeast)), P00163 [Q22E]; assay: Inhibition of Saccharomyces cerevisiae isolate 3 cytochrome bc1 complex harboring cytochrome b Q22E mutant
[24] = test system: Cytochrome b (Candida albicans (strain SC5314 / ATCC MYA-2876) (Yeast)), P0C8L0 [S20I]; assay: Inhibition of Candida albicans isolate 1 cytochrome bc1 complex harboring cytochrome b S20I mutant
[25] = test system: Cytochrome b (Saccharomyces cerevisiae (strain ATCC 204508 / S288c) (Baker's yeast)), P00163 [L198F]; assay: Inhibition of Saccharomyces cerevisiae isolate 1 cytochrome bc1 complex harboring cytochrome b L198F mutant
[26] = Inhibition of Candida albicans MY 1055 NADH:cytochrome c oxidoreductase
[27] = Selectivity ratio of MIC for Candida albicans MY 1055 to IC50 for Candida albicans MY 1055 NADH:cytochrome c oxidoreductase; type: functional

Cytochrome b (Saccharomyces cerevisiae (strain ATCC 204508 / S288c) (Baker's yeast)), P00163 [G37D], sequence (P00163 whole entry G37D): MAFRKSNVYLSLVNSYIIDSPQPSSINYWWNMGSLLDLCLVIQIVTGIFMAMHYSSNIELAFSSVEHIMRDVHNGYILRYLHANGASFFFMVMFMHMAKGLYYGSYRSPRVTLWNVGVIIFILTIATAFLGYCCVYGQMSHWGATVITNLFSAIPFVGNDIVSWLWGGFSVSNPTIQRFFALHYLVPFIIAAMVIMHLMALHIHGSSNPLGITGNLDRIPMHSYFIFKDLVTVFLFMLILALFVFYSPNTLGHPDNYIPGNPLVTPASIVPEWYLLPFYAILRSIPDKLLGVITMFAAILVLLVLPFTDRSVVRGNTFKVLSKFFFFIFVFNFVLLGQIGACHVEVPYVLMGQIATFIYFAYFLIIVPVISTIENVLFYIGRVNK
Cytochrome b (Candida albicans (strain SC5314 / ATCC MYA-2876) (Yeast)), P0C8L0 [G37D], sequence (P0C8L0 whole entry G37D): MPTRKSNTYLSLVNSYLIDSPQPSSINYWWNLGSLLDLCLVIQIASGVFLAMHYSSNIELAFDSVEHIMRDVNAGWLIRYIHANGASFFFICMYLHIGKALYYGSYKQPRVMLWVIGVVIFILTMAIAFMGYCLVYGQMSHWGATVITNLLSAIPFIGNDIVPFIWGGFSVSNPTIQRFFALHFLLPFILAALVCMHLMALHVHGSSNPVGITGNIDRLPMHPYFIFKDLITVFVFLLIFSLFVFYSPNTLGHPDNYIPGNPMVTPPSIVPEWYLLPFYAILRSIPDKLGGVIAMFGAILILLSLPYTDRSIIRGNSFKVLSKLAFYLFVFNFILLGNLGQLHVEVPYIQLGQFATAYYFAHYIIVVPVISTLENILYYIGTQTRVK
Cytochrome b (Saccharomyces cerevisiae (strain ATCC 204508 / S288c) (Baker's yeast)), P00163 [Q22E], sequence (P00163 whole entry Q22E): as the sequence (P00163 whole entry G37D) above, with Q22E, D37G counted along it
Cytochrome b (Saccharomyces cerevisiae (strain ATCC 204508 / S288c) (Baker's yeast)), P00163 [S20T], sequence (P00163 whole entry S20T): as the sequence (P00163 whole entry G37D) above, with S20T, D37G counted along it
Cytochrome b (Saccharomyces cerevisiae (strain ATCC 204508 / S288c) (Baker's yeast)), P00163 [Q22T], sequence (P00163 whole entry Q22T): as the sequence (P00163 whole entry G37D) above, with Q22T, D37G counted along it
Cytochrome b (Saccharomyces cerevisiae (strain ATCC 204508 / S288c) (Baker's yeast)), P00163 [L198F], sequence (P00163 whole entry L198F): as the sequence (P00163 whole entry G37D) above, with D37G, L198F counted along it
Cytochrome b (Candida albicans (strain SC5314 / ATCC MYA-2876) (Yeast)), P0C8L0 [G37S], sequence (P0C8L0 whole entry G37S): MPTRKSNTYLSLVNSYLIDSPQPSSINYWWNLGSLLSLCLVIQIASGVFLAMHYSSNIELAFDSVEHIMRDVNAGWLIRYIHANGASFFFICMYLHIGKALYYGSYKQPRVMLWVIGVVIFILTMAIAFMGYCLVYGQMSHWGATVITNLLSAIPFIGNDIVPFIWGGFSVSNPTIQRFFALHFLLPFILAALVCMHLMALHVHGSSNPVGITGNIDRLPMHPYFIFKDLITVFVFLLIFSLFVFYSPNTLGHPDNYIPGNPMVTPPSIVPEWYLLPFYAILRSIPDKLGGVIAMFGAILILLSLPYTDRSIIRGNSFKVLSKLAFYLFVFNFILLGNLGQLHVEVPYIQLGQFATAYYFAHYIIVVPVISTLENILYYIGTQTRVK
Cytochrome b (Saccharomyces cerevisiae (strain ATCC 204508 / S288c) (Baker's yeast)), P00163 [G37S], sequence (P00163 whole entry G37S): as the sequence (P00163 whole entry G37D) above, with D37S counted along it
Cytochrome b (Saccharomyces cerevisiae (strain ATCC 204508 / S288c) (Baker's yeast)), P00163 [S20L], sequence (P00163 whole entry S20L): as the sequence (P00163 whole entry G37D) above, with S20L, D37G counted along it
Cytochrome b (Candida albicans (strain SC5314 / ATCC MYA-2876) (Yeast)), P0C8L0 [S20I], sequence (P0C8L0 whole entry S20I): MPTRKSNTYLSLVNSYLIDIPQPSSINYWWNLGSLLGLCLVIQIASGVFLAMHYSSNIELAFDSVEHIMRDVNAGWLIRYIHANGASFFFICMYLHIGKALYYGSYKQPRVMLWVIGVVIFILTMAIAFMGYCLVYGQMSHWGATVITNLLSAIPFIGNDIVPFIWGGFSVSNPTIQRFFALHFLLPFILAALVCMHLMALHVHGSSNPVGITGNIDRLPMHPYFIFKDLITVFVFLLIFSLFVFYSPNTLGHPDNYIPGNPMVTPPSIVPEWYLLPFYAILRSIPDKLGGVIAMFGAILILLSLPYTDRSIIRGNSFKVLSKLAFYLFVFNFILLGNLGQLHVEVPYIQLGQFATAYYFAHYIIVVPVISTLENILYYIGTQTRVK
Cytochrome b (Candida albicans (strain SC5314 / ATCC MYA-2876) (Yeast)), P0C8L0 [Q22E], sequence (P0C8L0 whole entry Q22E): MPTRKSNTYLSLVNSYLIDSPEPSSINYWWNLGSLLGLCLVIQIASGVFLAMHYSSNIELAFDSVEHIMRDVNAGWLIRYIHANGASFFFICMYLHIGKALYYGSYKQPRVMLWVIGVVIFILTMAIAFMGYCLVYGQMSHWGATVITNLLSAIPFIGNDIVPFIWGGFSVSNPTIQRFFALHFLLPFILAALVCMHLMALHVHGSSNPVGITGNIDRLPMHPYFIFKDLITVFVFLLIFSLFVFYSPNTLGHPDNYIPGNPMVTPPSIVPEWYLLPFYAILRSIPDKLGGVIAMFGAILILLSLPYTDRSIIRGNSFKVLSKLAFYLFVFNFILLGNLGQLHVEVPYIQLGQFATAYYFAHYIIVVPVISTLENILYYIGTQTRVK
Cytochrome b (Candida albicans (strain SC5314 / ATCC MYA-2876) (Yeast)), P0C8L0 [G37C], sequence (P0C8L0 whole entry G37C): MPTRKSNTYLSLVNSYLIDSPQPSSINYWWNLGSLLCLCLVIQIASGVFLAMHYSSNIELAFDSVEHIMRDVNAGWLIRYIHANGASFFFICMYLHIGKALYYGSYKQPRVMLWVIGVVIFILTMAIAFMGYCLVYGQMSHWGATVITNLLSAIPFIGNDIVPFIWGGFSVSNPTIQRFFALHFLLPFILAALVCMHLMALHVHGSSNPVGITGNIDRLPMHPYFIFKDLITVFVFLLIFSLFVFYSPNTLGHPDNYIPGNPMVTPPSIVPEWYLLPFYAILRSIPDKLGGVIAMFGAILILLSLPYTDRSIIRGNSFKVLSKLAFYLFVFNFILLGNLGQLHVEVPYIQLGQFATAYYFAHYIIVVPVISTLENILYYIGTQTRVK

SMILES | MIC [1] | Activity [2] | Activity [3] | Activity [4] | Activity [5] | Activity [6] | Activity [7] | Activity [8] | Activity [9] | Activity [10] | Activity [11] | Activity [12] | Activity [13] | Activity [1] | other results
C/C=C/[C@@H]1[C@H]2C[C@@H](C)CC[C@@H]2C(C)=C[C@H]1/C(=N\O)c1c(O)c(-c2ccc(O)cc2)c[nH]c1=O | > 10 µg/mL |  |  |  |  |  |  |  |  |  |  |  |  |  | 
C/C=C/[C@@H]1[C@H]2C[C@@H](C)CC[C@@H]2C(C)=C[C@H]1/C1=N/NCCOCC12C(=O)NC=C(c1ccc(O)cc1)C2=O (some centres not stated) | > 10 µg/mL |  |  |  |  |  |  |  |  |  |  |  |  |  | 
CC[C@H](C)C[C@H](C)CCCCCCCCC(=O)N[C@H]1C[C@@H](O)[C@@H](NCCN)NC(=O)[C@@H]2[C@@H](O)CCN2C(=O)[C@H]([C@H](O)CCN)NC(=O)[C@H]([C@H](O)[C@@H](O)c2ccc(O)cc2)NC(=O)[C@@H]2C[C@@H](O)CN2C(=O)[C@H]([C@@H](C)O)NC1=O |  | Active | Active | Active | Active | Active | Active | Active | Active | Active | Active | Active | Active | Active | 
CO/C(=C/C(N)=O)[C@H](C)[C@H](/C=C/c1csc(-c2csc([C@@H](C)/C=C/C=C/C(C)C)n2)n1)OC |  |  |  |  |  |  |  |  |  |  |  |  |  |  | inhibition [14]: Active; inhibition [15]: Active; inhibition [16]: Active; inhibition [17]: Active; inhibition [18]: Active; inhibition [19]: Active; inhibition [20]: Active; inhibition [21]: Active; inhibition [22]: Active; inhibition [23]: Active; inhibition [24]: Active; inhibition [25]: Active
C[C@@H]1[C@H](O)[C@@H](C)/C=C/C=C/C=C/C=C/C=C/C=C/C=C/[C@H](O[C@@H]2O[C@H](C)[C@@H](O)[C@H](N)[C@@H]2O)C[C@@H]2O[C@](O)(C[C@@H](O)C[C@@H](O)[C@H](O)CC[C@@H](O)C[C@@H](O)CC(=O)O[C@H]1C)C[C@H](O)[C@H]2C(=O)O |  | Active | Active | Active | Active | Active | Active | Active | Active | Active | Active | Active | Active | Active | 
OC(Cn1cncn1)(Cn1cncn1)c1ccc(F)cc1F |  | Active | Active | Active | Active | Active | Active | Active | Active | Active | Active | Active | Active | Active | 
C/C=C/[C@H]1C(c2noc3c(-c4ccc(O)cc4)c[nH]c(=O)c23)C=C(C)[C@H]2CC[C@H](C)C[C@@H]21 (single isomer, unassigned) | > 10 µg/mL |  |  |  |  |  |  |  |  |  |  |  |  |  | 
C/C=C/[C@H]1C(c2n[nH]c3c(-c4ccc(O)cc4)c[nH]c(=O)c23)C=C(C)[C@H]2CC[C@H](C)C[C@@H]21 (single isomer, unassigned) | 0.25 µg/mL (≈ 0.582 µM) |  |  |  |  |  |  |  |  |  |  |  |  |  | IC50 [26]: 0.003 µg/mL (≈ 0.00698 µM); Ratio [27]: 10
